Measured values: US20110172097A1, “Imidazole and Triazole Compounds, Their Use and Agents Containing The Same” (BASF SE, priority 2008, published 2011)

Legend:
Pyricularia oryzae = assay type: cell-based; conditions: day 7, 405 nm, active compound-free control = 100%
Phakopsora pachyrhizi = experiment: Example G1 - Curative activity against soybean rust caused by Phakopsora pachyrhizi (greenhouse); assay type: in vivo, Phakopsora pachyrhizi on soybean seedlings; conditions: 300 ppm, curative spray 24 h after inoculation, assessed after 14 days, untreated plants 90% infected
Septoria tritici = experiment: CG1 - Protective activity against Septoria leaf spot of wheat caused by Septoria tritici (greenhouse); assay type: in vivo, Septoria tritici on wheat seedlings; conditions: protective spray 24 h before inoculation, assessed after 21 days, % infection of total leaf area, untreated control 90
Description: Subsequently, it was made up to 100 ml with water. This stock solution was diluted with the described solvent/emulsifier/water mixture to the active compound concentration indicated below. Alternatively, the active compounds were used as a commercially available ready-to-use solution and diluted with water to the active compound concentration indicated. CG1 Protective Activity Against Septoria Leaf Spot of Wheat Caused by Septoria tritici Leaves of potted wheat seedlings were sprayed to run off point with an aqueous suspension having the active compound concentration stated below. 24 hours after the spray coating had dried on, they were inoculated with an aqueous spore suspension of Septoria tritici. The test plants were then placed in a greenhouse at temperatures between 18 and 22° C. and a relative atmospheric humidity close to 100% for 4 days and then at temperatures between 18 and 22° C. and an atmospheric humidity of about 70%. After 21 days, the extent of the development of the disease was determined visually in % infection of the total leaf area.

Row | SMILES | Growth (%) at 31 ppm CM1 (Pyricularia oryzae) [%] | Infection (%) at 600 ppm CG1 (Septoria tritici) [%] | also measured
1 | CC(C)(CCCC(C(O)C(C)(C)C)n1cncn1)c1ccccc1 (centres unmarked) [I.A1a, 2,2,8-trimethyl-8-phenyl-4-[1,2,4]triazol-1-ylnonan-3-ol] | 26 |  | 
2 | CC(C)(CCCC(C(O)C(C)(C)C)n1cncn1)c1ccccc1 (centres unmarked) [I.A1b, 2,2,8-trimethyl-8-phenyl-4-[1,2,4]triazol-1-ylnonan-3-ol] |  |  | extent of the rust fungus development on the leaves in % infection (Phakopsora pachyrhizi): 0%
3 | CC(C)(C)C(O)C(CCCCc1ccc(F)cc1)n1cncn1 (centres unmarked) [I.A5a, 8-(4-fluorophenyl)-2,2-dimethyl-4-[1,2,4]triazol-1-yloctan-3-ol] |  | 10 | 
4 | CC(C)(C)C(O)C(CCCCc1ccc(Cl)cc1)n1cncn1 (centres unmarked) [reference compound] |  | 40 | 
5 | CC(C)(C)C(O)C(CCCCc1ccccc1)n1cncn1 (centres unmarked) [reference compound] | 61 |  | 
